Reference: patent US12479843B2, “Spiro ring-containing quinazoline compounds” (WIGEN BIOMEDICINE TECHNOLOGY (SHANGHAI) CO., LTD., priority 2019, dated 2025)

Test system: pERK level in H358 cells
Test: pERK and ERK protein content assay in H358 cells (ELISA)
Type: cell-based
Settings: Homo sapiens, NCI-H358, compound 1 μM, 24 h, pERK/ERK ratio compared with DMSO group, read-out: Inhibition rate (%) of pERK level
Summary of the method: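 H358 cells grown one day, then treated 24 h with compound at 1 μM. pERK and ERK in lysates measured by ELISA; pERK/ERK ratio expressed as percent inhibition versus DMSO.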

| Structure (SMILES) | inhibition at 1 µM [%] |
| --- | --- |
| C=C(F)C(=O)N1CC2(CCN(c3nc(O[C@H]4CCN(CCOC)C4)nc4c(OCC(F)(F)F)c(-c5c(C)ccc6[nH]ncc56)c(C5CC5)cc34)CC2)C1 [Compound 65] | > 90 |
| C=C(C(=O)N1CC2(CCN(c3nc(OC4CCN(CCOC)CC4)nc4c(OCC(F)(F)F)c(-c5c(C)ccc6[nH]ncc56)c(C5CC5)cc34)CC2)C1)n1cncn1 [Compound 23] | > 90 |
| C=CC(=O)N1CC2(CCN(c3nc(N4CC(N5CCC[C@H]5C#N)C4)nc4c(OCC(F)(F)F)c(-c5c(C)ccc6[nH]ncc56)c(C5CC5)cc34)CC2)C1 [Compound 250] | 50 to 90 |
| C=C(F)C(=O)N1CC2(CCN(c3nc(OC4CCN(CCOC)CC4)nc4c(OCC(F)(F)F)c(-c5c(N)c(Cl)cc(Cl)c5F)c(C5CC5)cc34)CC2)C1 [Compound 50] | > 90 |
| C=CC(=O)N1CC2(CCN(c3nc(N4CC5(C4)[C@@H](OC)CCN5C)nc4c(OCC(F)(F)F)c(-c5c(C)ccc6[nH]ncc56)c(C5CC5)cc34)CC2)C1 [Compound 275] | > 90 |
| C=C(C#N)C(=O)N1CC2(CCN(c3nc(OC4CCN(CCOC)CC4)nc4c(OCC(F)(F)F)c(-c5c(C)ccc6[nH]ncc56)c(C5CC5)cc34)CC2)C1 [Compound 18] | 50 to 90 |
| C=CC(=O)N1CC2(CCN(c3nc(N4CC[C@H](N(C)C)C4)nc4c(OCC(F)(F)F)c(-c5c(C)ccc6[nH]ncc56)c(C5CC5)cc34)CC2)C1 [Compound 185] | > 90 |
| C=CC(=O)N1CC2(CCN(c3nc(OC4CCN(CCOC)CC4)nc4c(OCC(F)(F)F)c(-c5c(C)ccc6[nH]ncc56)ccc34)CC2)C1 [Compound 10] | 50 to 90 |
| C=CC(=O)N1CC2(CCN(c3nc(N4CC(N5C6CCC5CC6)C4)nc4c(OCC(F)(F)F)c(-c5c(C)c(C)cc6[nH]ncc56)c(C5CC5)cc34)CC2)C1 [Compound 326] | > 90 |
| C=CC(=O)N1CC2(CCN(c3nc(N4CC(N5CC[C@H](OC)C5)C4)nc4c(OCC(F)(F)F)c(-c5c(C)ccc6[nH]ncc56)c(C5CC5)cc34)CC2)C1 [Compound 174] | > 90 |
| C=CC(=O)N1CC2(CCN(c3nc(N4CC(N5CC[C@H](C)C5)C4)nc4c(OCC(F)(F)F)c(-c5c(C)ccc6[nH]ncc56)c(C=C)cc34)CC2)C1 [Compound 339] | > 90 |
| C=CC(=O)N1CC2(CCN(c3nc(N4CC[C@@H](N(C)C)C4)nc4c(OCC(F)(F)F)c(-c5c(C)ccc6[nH]ncc56)c(C5CC5)cc34)CC2)C1 [Compound 186] | > 90 |
| C=CC(=O)N1CC2(CCN(c3nc(N4CC(N5CC(C)C5)C4)nc4c(OCC(F)(F)F)c(-c5c(C)ccc6[nH]ncc56)c(C5CC5)cc34)CC2)C1 [Compound 237] | > 90 |
| C=CC(=O)N1CC2(CCN(c3nc(N4CC(N5C6CCC5CC6)C4)nc4c(OCC(F)(F)F)c(-c5c(C)ccc6[nH]ncc56)c(C=C)cc34)CC2)C1 [Compound 341] | > 90 |
| C=CC(=O)N1CC2(CCN(c3nc(OC4CCN(CCOC)CC4)nc4c(OCC(F)(F)F)c(-c5c(F)cccc5F)c(C5CC5)cc34)CC2)C1 [Compound 53] | > 90 |
| C=CC(=O)N1CC2(CCN(c3nc(N(C)CCN4CC(OC)C4)nc4c(OCC(F)(F)F)c(-c5c(C)ccc6[nH]ncc56)c(C5CC5)cc34)CC2)C1 [Compound 230] | 50 to 90 |
| C=CC(=O)N1CC2(CCN(c3nc(N4CC[C@H](N(CC)CC)C4)nc4c(OCC(F)(F)F)c(-c5c(C)ccc6[nH]ncc56)c(C5CC5)cc34)CC2)C1 [Compound 189] | > 90 |
| C=CC(=O)N1CC2(CCN(c3nc(N4CC(N(CC)CC)C4)nc4c(OCC(F)(F)F)c(-c5c(C)ccc6[nH]ncc56)c(C5CC5)cc34)CC2)C1 [Compound 166] | > 90 |
| C=C(F)C(=O)N1CC2(CCN(c3nc(OC4CCN(CCOC)CC4)nc4c(OCC(F)(F)F)c(-c5c(F)ccc6cn[nH]c56)c(C5CC5)cc34)CC2)C1 [Compound 34] | > 90 |
| C=CC(=O)N1CC2(CCN(c3nc(N4CC5(CCN(CCC#N)CC5)C4)nc4c(OCC(F)(F)F)c(-c5c(C)ccc6[nH]ncc56)c(C5CC5)cc34)CC2)C1 [Compound 87] | > 90 |
| C=CC(=O)N1CC2(CCN(c3nc(N4CC(N5CCC5)C4)nc4c(OCC(F)(F)F)c(-c5c(C)ccc6[nH]ncc56)c(C5(C)CC5)cc34)CC2)C1 [Compound 322] | > 90 |

Test system: H358 cells
Test: Antiproliferative activity against H358 cells (Cell Titer Glow, ultra-low attachment plate)
Type: cell-based
Settings: Homo sapiens, NCI-H358, 72 h, 96-well ultra-low attachment plate, three days after addition of compound, Cell Titer Glow
Protocol: 2500 H358 cells were seeded in a 96-well ultra-low attachment plate (corning, 7007). After one day of growth, a serially diluted compound (a maximum concentration of 5 μM, 5-fold dilution, a total of five doses) was added. Three days after the addition of the compound, Cell Titer Glow (Promega, G9681) was added to evaluate pellet growth, and the IC50 value was calculated.

| IC50 [nM] | Structure (SMILES) |
| --- | --- |
| < 300 | C=C(F)C(=O)N1CC2(CCN(c3nc(O[C@H]4CCN(CCOC)C4)nc4c(OCC(F)(F)F)c(-c5c(C)ccc6[nH]ncc56)c(C5CC5)cc34)CC2)C1 [Compound 65] |
| < 300 | C=C(C(=O)N1CC2(CCN(c3nc(OC4CCN(CCOC)CC4)nc4c(OCC(F)(F)F)c(-c5c(C)ccc6[nH]ncc56)c(C5CC5)cc34)CC2)C1)n1cncn1 [Compound 23] |
| 300 to 1000 | C=CC(=O)N1CC2(CCN(c3nc(N4CC(N5CCC[C@H]5C#N)C4)nc4c(OCC(F)(F)F)c(-c5c(C)ccc6[nH]ncc56)c(C5CC5)cc34)CC2)C1 [Compound 250] |
| < 300 | C=C(F)C(=O)N1CC2(CCN(c3nc(OC4CCN(CCOC)CC4)nc4c(OCC(F)(F)F)c(-c5c(N)c(Cl)cc(Cl)c5F)c(C5CC5)cc34)CC2)C1 [Compound 50] |
| < 300 | C=CC(=O)N1CC2(CCN(c3nc(N4CC5(C4)[C@@H](OC)CCN5C)nc4c(OCC(F)(F)F)c(-c5c(C)ccc6[nH]ncc56)c(C5CC5)cc34)CC2)C1 [Compound 275] |
| 300 to 1000 | C=C(C#N)C(=O)N1CC2(CCN(c3nc(OC4CCN(CCOC)CC4)nc4c(OCC(F)(F)F)c(-c5c(C)ccc6[nH]ncc56)c(C5CC5)cc34)CC2)C1 [Compound 18] |
| < 300 | C=CC(=O)N1CC2(CCN(c3nc(N4CC[C@H](N(C)C)C4)nc4c(OCC(F)(F)F)c(-c5c(C)ccc6[nH]ncc56)c(C5CC5)cc34)CC2)C1 [Compound 185] |
| 300 to 1000 | C=CC(=O)N1CC2(CCN(c3nc(OC4CCN(CCOC)CC4)nc4c(OCC(F)(F)F)c(-c5c(C)ccc6[nH]ncc56)ccc34)CC2)C1 [Compound 10] |
| < 300 | C=CC(=O)N1CC2(CCN(c3nc(N4CC(N5CC[C@H](OC)C5)C4)nc4c(OCC(F)(F)F)c(-c5c(C)ccc6[nH]ncc56)c(C5CC5)cc34)CC2)C1 [Compound 174] |
| < 300 | C=CC(=O)N1CC2(CCN(c3nc(N4CC(N5CC[C@H](C)C5)C4)nc4c(OCC(F)(F)F)c(-c5c(C)ccc6[nH]ncc56)c(C=C)cc34)CC2)C1 [Compound 339] |
| < 300 | C=CC(=O)N1CC2(CCN(c3nc(N4CC[C@@H](N(C)C)C4)nc4c(OCC(F)(F)F)c(-c5c(C)ccc6[nH]ncc56)c(C5CC5)cc34)CC2)C1 [Compound 186] |
| < 300 | C=CC(=O)N1CC2(CCN(c3nc(N4CC(N5CC(C)C5)C4)nc4c(OCC(F)(F)F)c(-c5c(C)ccc6[nH]ncc56)c(C5CC5)cc34)CC2)C1 [Compound 237] |
| < 300 | C=CC(=O)N1CC2(CCN(c3nc(OC4CCN(CCOC)CC4)nc4c(OCC(F)(F)F)c(-c5c(F)cccc5F)c(C5CC5)cc34)CC2)C1 [Compound 53] |
| 300 to 1000 | C=CC(=O)N1CC2(CCN(c3nc(N(C)CCN4CC(OC)C4)nc4c(OCC(F)(F)F)c(-c5c(C)ccc6[nH]ncc56)c(C5CC5)cc34)CC2)C1 [Compound 230] |
| < 300 | C=CC(=O)N1CC2(CCN(c3nc(N4CC[C@H](N(CC)CC)C4)nc4c(OCC(F)(F)F)c(-c5c(C)ccc6[nH]ncc56)c(C5CC5)cc34)CC2)C1 [Compound 189] |
| < 300 | C=CC(=O)N1CC2(CCN(c3nc(N4CC(N(CC)CC)C4)nc4c(OCC(F)(F)F)c(-c5c(C)ccc6[nH]ncc56)c(C5CC5)cc34)CC2)C1 [Compound 166] |
| < 300 | C=C(F)C(=O)N1CC2(CCN(c3nc(OC4CCN(CCOC)CC4)nc4c(OCC(F)(F)F)c(-c5c(F)ccc6cn[nH]c56)c(C5CC5)cc34)CC2)C1 [Compound 34] |
| < 300 | C=CC(=O)N1CC2(CCN(c3nc(N4CC5(CCN(CCC#N)CC5)C4)nc4c(OCC(F)(F)F)c(-c5c(C)ccc6[nH]ncc56)c(C5CC5)cc34)CC2)C1 [Compound 87] |
| < 300 | C=CC(=O)N1CC2(CCN(c3nc(N4CC(N5CCC5)C4)nc4c(OCC(F)(F)F)c(-c5c(C)ccc6[nH]ncc56)c(C5(C)CC5)cc34)CC2)C1 [Compound 322] |

| Structure (SMILES) | IC50 [nM] |
| --- | --- |
| C=CC(=O)N1CC2(CCN(c3nc(N4CC(N5C6CCC5CC6)C4)nc4c(OCC(F)(F)F)c(-c5c(C)c(C)cc6[nH]ncc56)c(C5CC5)cc34)CC2)C1 [Compound 326] | < 300 |
| C=CC(=O)N1CC2(CCN(c3nc(N4CC(N5C6CCC5CC6)C4)nc4c(OCC(F)(F)F)c(-c5c(C)ccc6[nH]ncc56)c(C=C)cc34)CC2)C1 [Compound 341] | < 300 |
